Test results taken from US20200022944A1, “COMPOSITION OR MEDICAL FOOD TO EXTRACT THE DIETARY IRON AND BOOST ITS BIOAVAILABILITY FOR IRON DEFICIENCY (ID) AND ID-ANEMIA” (TIXUPHARMA DI CARLO GHISALBERTI, priority 2017, published 2020).

Tests used:
[1] = Cell-free in vitro competition test for Fe(III) versus antinutrients; type: physicochemical; settings: for recovery of Fe as 1:3 Fe-ligand complex in competition with non-cathecolic polyphenols (avg.): average; for recovery of Fe as 1:3 Fe-ligand complex in competition with non-cathecolic polyphenols (avg.) / recovery of Fe as 1:3 Fe-ligand complex in competition with oxalates / recovery of Fe as 1:3 Fe-ligand complex in competition with phosphate: vs citrate ref standard of 100% recovery; for recovery of Fe as 1:3 Fe-ligand complex in competition with oxalates / recovery of Fe as 1:3 Fe-ligand complex in competition with phosphate: sequential pH 6/2.5/6.5, CH2Cl2 extract read at 405 nm; for iron competition versus phytate and catecholic polyphenols: without enzymatic co-treatment
Experimental: The method evaluates the competitive affinity for Fe(III) of maltol/ethyl maltol versus antinutrients, i.e. the iron sequestering agents occurring in food, in a 3-step method which adopts a sequential pH 6/2.5/6.5 mimic the pHs occurring in stomach at fast, during gastro digestion and in duodenum, respectively. Stock solution at 10 mM conc. were prepared by dissolving in water the following reagents: (a) antinutrient series: EDTA (EDTA=negative control), ellagic acid (ELL), gallic acid (GAL), hesperidin (HES), naringin (NAR), monosodium oxalate (OXA), disodium phosphate (PHO), quercetin (QUE), rutin (RUT), tannic acid (TAN), phytic acid sodium salt (PHY); wherein the cathecolic polyphenols (CPP) are presented as pooled (b) maltol (MAL) and ethyl maltol (EMAL); […] In brief, in 15-ml tubes were combined 100 μl of 10 mM FAC (1 μmol); 1 ml of 10 mM CaCl2 (10 μmol); 1 ml of 10 mM 3-hydroxy-4-pyrone (10 μmol); 1 ml of each antinutrient at 10 mM (10 μmol); and 2 ml of water to 5 ml final volume. No antinutrients were introduced in the positive control. Tubes were oscillated at 30 rpm for 2.5 hours, of which: 1 hour at initial pH 6-6.5; 1 hour at pH 2-2.5 (by 50 μl 1N HCl), and final 30 min. at pH around 6.5 (by 50 μl 1N NaOH). The tubes were then added with 2 ml di CH2Cl2 and shacked for 2 min. […] Residues were taken up with 2 ml water and read at 405 nm. Absorbance calibration: r=0.30 and linear correlation within the 40-4 μM range (r2=1; […] on 0-intercept).

[2] = In vitro digestion model: extraction of dietary non-heme iron from vegetal foods; settings: for yield of extracted iron from vegetal food: canned soybean, red beans, peas, 1 ml 10 mM, versus water control; for surplus of yields of gastroactive (GA) model over gastropassive (GP) condition: with versus without classic digestive enzymes
Experimental: The method assessed the extraction of dietary non-heme iron by maltol or ethyl maltol in simulated digestion of vegetal foods, with/without digestive enzymes. In brief, samples (10 g) of vegetable foods, viz. canned soybean, red beans and peas were smashed in mortar with 5 ml water. Specimen were combined in 50 ml tubes supplemented with HCl solution (pH 2.5) of mix of classic digestive enzymes consisting in: 2 mg pepsin 1:3000; 0.5 mg lipase 200 FIP/g; and bile enzymes, i.e. 2.5 mg bovine bile extract; 1.25 pancreatin extract 4:1 in “gastroactive” model (“GA”). A parallel test named “gastropassive” use non enzymes. Tube were added with 1 ml maltol/ethyl maltol 10 mM, or water in control, and underwent 2 hours of slow motion (60 o/min) at controlled temperature. The pH was finally adjusted to 6-7 (1N NaOH) and the tubes remained on oscillation for further 30 min. The digests were collected, filtered at 100 μm mesh, diluted and read at 405 nm. Results expressed as % recovery of Fe calculated against a calibration curve) are plotted in FIG. 3.

[3] = test system: rodents conducted to anemia by iron starvation; experiment: Murine model of anemic therapy (iron-deficient diet); type: in vivo, female Wistar rats; settings: normalized-iron vegetal diet comprising the substance after ID diet, compared to both controls
Experimental: This in vivo murine study sized the capacity of maltol/ethyl maltol compounded into food to enhance iron uptake in rodents conducted to anemia by iron starvation. For that purpose, 6-wk old female Wistar rats were fed for 28 days a iron-deficient diet (Fe:12 mg/kg), labeled IDD1. A control group received standard diet (Fe:45 mg/kg) (Ctrl1) along the entire experiment. In the second stage, IDD1 rats were randomized for 26 days test diets conceived as follows: the M3 and EM3 groups received cookies with 3% of maltol or 3% ethyl maltol, respectively. The M/EMO group was fed with cookies without maltol/ethyl maltol; while the IDD2 group was maintained at Fe-deficient diet. […] Cookies were produced from corn flour and vegetal fat, and backed at 180° C. for 15 minM, whereas in M3 and EM3 groups a portion (3%) of corn flour was replaced with maltol and ethyl maltol. Animals were kept in room with 12 h light/dark cycle, temperature of 24° C. […], and drinking water ad libitum. […] Serum iron was measured at 623 nm, haemoglobin content (Hb) total iron binding capacity (TIBC), erythrocytes, haemoglobin (Hb), hematocrit (Ht), mean corpuscular volume (MCV), mean corpuscular haemoglobin (MCH), and MCH concentration (MCHC) assessed according to Regula et al. Ann Agric Environ Med 2016;23(2):310-4. Iron transferrin saturation (TSAT) was calculated by the formula: TSAT=(Fe/TIBC)×[…].

[4] = test system: Caco-2 cells; experiment: Caco-2 monolayer absorption: ferritin formation; settings: 1 h contact at 37° C., 23 h re-incubation; Fe 200 μM
Experimental: Caco-2 cells cultivated and used at passages 24-50 in culture medium, serum-free MEM, were exposed to test substances in culture medium.
(§1) (a) maltol (MAL) and ethyl maltol (EMAL) at 10 mM concentration;
(§2) (c) iron sources: FAC (Fe^III) and ferrous sulfate (FS, Fe^III) at 1:10 eq/eq with respect to AA, at 1:20 eq/eq with respect to CA, and at 1:5 eq/eq with respect to MAL.
(§3) The final Fe concentration was fixed 200 μM with the other molar ratio as listed above, while the solution were then neutralized to pH 6-7.
One hour contact at 37° C. was used for similarity of duodenal contact time. After incubation 1 h the medium was aspirated, cell monolayer washed 3× PBS-EDTA and fresh MEM added. Cells were re-incubated for 23 h to allow ferritin formation, lysed with 400 μl of MPER® lysis buffer, lysate collected, centrifuged for 5′ at 16,000×g, and supernatant collected for analysis. The solutions were filter-sterilized (0.2 μm syringe filter) prior dilution in the culture medium.
Ferritin content of Caco-2 cells was determined by an ELISA kit, results corrected for the baseline values and expressed in relation to total cell protein in ng ferritin/mg cell protein.

[5] = pH 6
Experimental: as §1, §2, §3
Total iron was determined by inductively-coupled plasma optical emission spectrometry, where both ICP-OES standards and samples were diluted in 0.5% HNO3 in 0-1000 ppb range. Physical classification of iron was assessed after centrifugation (10,000×g, 5 min.), the supernatant was ultrafiltrated with 3kDa MWCO filter 10,000×g, 10 min. Phase distribution was calculated as: iron microparticulate (total Fe−Fe in supernatant), iron nanoparticulate (Fe ultrafiltrate−Fe in supernatant) and soluble iron (Fe ultrafiltrate/total Fe).

[6] = test system: inflammatory bowel disease; settings: animal model of IBD; Minaiyan et al. 2012; cited from earlier work

With CCc1occc(=O)c1O [ethyl maltol] the “recovery of Fe as 1:3 Fe-ligand complex in competition with non-cathecolic polyphenols (avg.)” value [1] was 95%, the “recovery of Fe as 1:3 Fe-ligand complex in competition with oxalates” value [1] was 89% and the “recovery of Fe as 1:3 Fe-ligand complex in competition with phosphate” value [1] was 98%. For the same compound, the “iron competition versus phytate and catecholic polyphenols” value [1] was “limited efficiency”, the “yield of extracted iron from vegetal food” value [2] was “increased the yield of extracted iron from vegetal food” and the “surplus of yields of gastroactive (GA) model over gastropassive (GP) condition” value [2] was “about 10%”. The “recovery of iron and hematologic levels” value [3] was “faster recovery of iron and hematologic levels” and the “ferritin formation in Caco-2 cells” value [4] was “produced soluble iron utilized by enteric cells for ferritin synthesis”.
For Cc1occc(=O)c1O [maltol], the “recovery of Fe as 1:3 Fe-ligand complex in competition with non-cathecolic polyphenols (avg.)” value [1] was 95%, the “recovery of Fe as 1:3 Fe-ligand complex in competition with oxalates” value [1] was 89% and the “recovery of Fe as 1:3 Fe-ligand complex in competition with phosphate” value [1] was 98%. For the same compound, the “iron competition versus phytate and catecholic polyphenols” value [1] was “limited efficiency”, the “yield of extracted iron from vegetal food” value [2] was “increased the yield of extracted iron from vegetal food” and the “surplus of yields of gastroactive (GA) model over gastropassive (GP) condition” value [2] was “about 10%”. The “recovery of iron and hematologic levels” value [3] was “faster recovery of iron and hematologic levels”, the “iron solubility / phase distribution” value [5] was “retain the Fe(III) solubility at supplemental levels” and the “therapeutic dosage (ED50)” value [6] was 140-240 mg/kg bw. The “ferritin formation in Caco-2 cells” value [4] was “produced soluble iron utilized by enteric cells for ferritin synthesis”.
